Assay results reported in patent US10738101B2, “Method for selecting odor-controlling substance” (Kao Corporation, priority 2015, dated 2020).

Key:
OR5AN1 = molecular target: T1, OR5AN1 (Homo sapiens, UniProt Q8NGI8); assay: Luciferase reporter gene assay, OR5AN1-expressing HEK293 cells; format: cell-based
T1 construct: expressed in transfected cells; host or cells: HEK293
T1 sequence (Q8NGI8 1-311): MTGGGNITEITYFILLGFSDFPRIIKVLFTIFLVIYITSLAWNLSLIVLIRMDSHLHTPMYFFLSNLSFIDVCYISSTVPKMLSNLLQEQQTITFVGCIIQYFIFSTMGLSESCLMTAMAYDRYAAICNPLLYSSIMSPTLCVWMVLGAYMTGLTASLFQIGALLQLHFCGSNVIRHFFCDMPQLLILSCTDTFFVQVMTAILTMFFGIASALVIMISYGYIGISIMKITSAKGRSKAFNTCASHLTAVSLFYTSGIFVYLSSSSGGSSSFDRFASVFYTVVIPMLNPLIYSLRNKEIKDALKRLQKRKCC
Description: (§1) On the basis of sequence information registered in GenBank, genes respectively encoding 370 human olfactory receptors shown in Tables 1-1 and 1-2 and genes respectively encoding the human olfactory receptors OR5AN1, OR10G4 and OR9Q2 (respectively set forth in SEQ ID NOS: 1, 3 and 5) were cloned. Each of the genes was cloned by the PCR using human genomic DNA person (G1521: Promega) as a template. Each gene amplified by the PCR was incorporated into a pENTR vector (Invitrogen) in accordance with the instruction, and was recombined to NotI and AscI sites produced downstream from a Flag-Rho tag sequence on a pME18S vector by using NotI and AscI sites present on the pENTR vector.
(§2) In 1) of Example 1, HEK293 cells on which the 370 human olfactory receptors were respectively expressed were produced. A reaction solution having a composition shown in Table 2 was prepared and allowed to stand still in a clean bench for 15 minutes, and the resultant was added by 4.4 μL per well in a 384-well plate (BioCoat). Subsequently, the HEK293 cells (20×10^4 cells/cm^2) were seeded by 40 μL per well, and the resultant was cultured for 24 hours in an incubator kept at 37° C. and 5% CO2.
(§3) In 2) of Example 1 and Examples 2 and 3, HEK293 cells in which the human olfactory receptor OR5AN1, OR10G4, OR9Q2 or OR1A1 was expressed were produced. A reaction solution having a composition shown in Table 3 was prepared and allowed to stand still in a clean bench for 15 minutes, and the resultant was added by 10 μL per well in a 96-well plate (BioCoat). Subsequently, the HEK293 cells (3×10^5 cells/cm^2) were seeded by 90 μL per well, and the resultant was cultured for 24 hours in an incubator kept at 37° C. and 5% CO2. Cells obtained under conditions for not expressing the olfactory receptor (Mock) were also prepared to be used as a control, and were used similarly in an experiment.
(§4) The olfactory receptor expressed on the HEK293 cells increases the intracellular cAMP amount by activating adenylate cyclase in conjugation with intracellular Gαs. In the measurement of odor response in this study, luciferase reporter gene assay for monitoring the increase of the intracellular cAMP amount as a luminescence value derived from a firefly luciferase gene (fluc2P-CRE-hygro) was employed. Besides, a fused Renilla luciferase (hRluc-CMV) gene was simultaneously transferred downstream of the CMV promoter, so as to be used as an internal standard for correcting the gene transfer efficiency or an error in the number of cells. For measuring the activity of the luciferase, Dual-Glo(™) Luciferase Assay System (Promega) was used, and the measurement was performed in accordance with the operation instruction of the product. Under each of various stimulation conditions, a value fLuc/hRluc obtained by dividing a firefly luciferase-derived luminescence value by a Renilla luciferase-derived luminescence value was calculated. A value obtained by dividing a value fLuc/hRluc induced by stimulation with an odorous substance by a value fLuc/hRluc of a cell not stimulated with the odorous substance was obtained as fold increase, which was used as an index of the response intensity. A dose-response curve was analyzed using Graph Pad Prism.
The medium was removed from each of the cultures of the olfactory receptor expressing cells produced according to Reference Example 1, and an odorous substance (muscone, guaiacol or p-cresol) was added thereto. A DMEM medium (Nacalai) containing muscone or guaiacol was added to a 384-well plate containing the culture by 30 μL per well (to a final concentration of muscone of 100 μM and of guaiacol of 1 mM). Alternatively, a CD293 medium (Invitrogen) containing p-cresol was added to a 96-well plate containing the culture by 75 μL per well (to a final concentration of 1 mM). […]

OR10G4 = molecular target: T2, OR10G4 (Homo sapiens, UniProt Q8NGN3); assay: Luciferase reporter gene assay, OR10G4-expressing HEK293 cells; format: cell-based; conditions: FIG. 5A, 5C
T2 construct: expressed in transfected cells; host or cells: HEK293
T2 sequence (Q8NGN3 1-311): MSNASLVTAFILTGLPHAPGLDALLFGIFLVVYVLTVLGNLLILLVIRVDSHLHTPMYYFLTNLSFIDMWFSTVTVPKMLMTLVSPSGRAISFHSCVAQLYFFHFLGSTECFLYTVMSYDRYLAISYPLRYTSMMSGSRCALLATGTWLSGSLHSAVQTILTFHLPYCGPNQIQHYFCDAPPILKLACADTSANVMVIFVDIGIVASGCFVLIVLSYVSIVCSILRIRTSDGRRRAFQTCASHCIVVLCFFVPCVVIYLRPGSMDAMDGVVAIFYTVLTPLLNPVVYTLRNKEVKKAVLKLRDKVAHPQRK
Description: as §1, §2, §3
as §4, with “For measuring the activity of the luciferase, Dual-Glo(™) Luciferase Assay System (Promega) was used, and the measurement was performed in accordance with the operation instruction of the product.” left out, “A value obtained by dividing a value fLuc/hRluc induced by stimulation with an odorous substance by a value fLuc/hRluc of a cell not stimulated with the odorous substance was obtained as fold increase, which was used as an index of the response intensity.” left out, “Prism. […]” for “Prism.”

odor of p-cresyl acetate = assay: Sensory test of cross-adaptation, target odor p-cresyl acetate; format: in vivo, human; conditions: panelists
[1] = tested on: odor of p-cresyl isobutyrate; assay: Sensory test of cross-adaptation, target odor p-cresyl isobutyrate; format: in vivo, human; conditions: panelists

Q: What does the source list for `C[C@@H]1CCCCCCCCCCCCC(=O)C1` [muscone, (R)-3-methyl-1-cyclopentadecanone]?
A: activation of OR5AN1 response (fold increase) (OR5AN1; 0.3 μM to 100 μM, vs Mock cells, FIG. 3): activating the response; responsiveness of OR5AN1 among 370 olfactory receptors (response intensity, fold increase) (OR5AN1; screen of 370 human olfactory receptors, muscone 100 μM, FIG. 1): highest responsiveness; responsiveness of OR10G4 (fold increase) (OR10G4): do not have responsiveness; cross-adaptation of p-cresyl acetate odor induced by test substance (odor of p-cresyl acetate): did not induce the cross-adaptation; cross-adaptation of p-cresyl isobutyrate odor induced by test substance [1]: did not induce the cross-adaptation
